Assay results published in ChEMBL document CHEMBL1201862, “PubChem BioAssay data set” (2004).
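Each compound was tested at five concentrations against cells in 96-well plates for 48 hours. Abbreviation: GI50, concentration required for 50% inhibition of growth.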 Calls of active or inactive are those of the source. No stated cut-off is given here; in the data, active = GI50 up to about 1.1 µM and inactive = higher. Peptide text beside a SMILES is read from it.

Key:
Test in all cases: NCI-60 cell line screen, 48 h
SK-OV-3 = test system: SK-OV-3
MDA-N = test system: MDA-N
HCT-116 = test system: HCT-116
SNB-19 = test system: SNB-19
NCI-H23 = test system: NCI-H23
MCF7 = test system: MCF7
SF-539 = test system: SF-539
OVCAR-8 = test system: OVCAR-8
HOP-62 = test system: HOP-62
CAKI-1 = test system: CAKI-1
UACC-257 = test system: UACC-257
MDA-MB-231 = test system: MDA-MB-231
HT-29 = test system: HT-29
SNB-75 = test system: SNB-75
TK-10 = test system: TK-10
Hs-578T = test system: Hs-578T
KM12 = test system: KM12
SK-MEL-28 = test system: SK-MEL-28
HOP-92 = test system: HOP-92
OVCAR-3 = test system: OVCAR-3

Measured: GI50

COc1cc(C2SC(=N)Nc3c2c(C)nn3C(=O)Cc2ccccc2)ccc1O (stereo unspecified)
inactive: SK-OV-3 > 100 µM | MDA-N > 100 µM | HCT-116 > 100 µM | SNB-19 > 100 µM | NCI-H23 > 100 µM | MCF7 > 100 µM | SF-539 > 100 µM | OVCAR-8 > 100 µM | HOP-62 > 100 µM | CAKI-1 > 100 µM | UACC-257 > 100 µM | MDA-MB-231 > 100 µM | HT-29 > 100 µM | SNB-75 26.8 µM | TK-10 > 100 µM | Hs-578T > 100 µM | KM12 > 100 µM | SK-MEL-28 > 100 µM

CCOC(=O)C(C(=O)OCC)C(NC(=O)Nc1cc(C(F)(F)F)ccc1OC)(C(F)(F)F)C(F)(F)F
inactive: SK-OV-3 47.6 µM | MDA-N 33.2 µM | HCT-116 36.2 µM | HOP-92 25.5 µM | SNB-19 39.9 µM | NCI-H23 35.3 µM | MCF7 37.2 µM | SF-539 19.5 µM | OVCAR-3 26.1 µM | OVCAR-8 31.6 µM | HOP-62 25.4 µM | CAKI-1 29.4 µM | UACC-257 39.5 µM | MDA-MB-231 17.4 µM | HT-29 35.8 µM | TK-10 59 µM | Hs-578T 25.2 µM | KM12 26.9 µM | SK-MEL-28 37.5 µM

CC(=O)NN/C=N/C(C#N)=C(\N)C#N
inactive: SK-OV-3 > 100 µM | MDA-N > 100 µM | HCT-116 > 100 µM | SNB-19 > 100 µM | NCI-H23 > 100 µM | MCF7 > 100 µM | SF-539 > 100 µM | OVCAR-3 > 100 µM | OVCAR-8 > 100 µM | HOP-62 > 100 µM | CAKI-1 > 100 µM | UACC-257 > 100 µM | MDA-MB-231 > 100 µM | HT-29 > 100 µM | SNB-75 > 100 µM | TK-10 > 100 µM | Hs-578T > 100 µM | KM12 > 100 µM | SK-MEL-28 > 100 µM

CC1=NN(C(=O)CSc2nnc(SCC(=O)N3N=C(C)CC3(O)c3ccccc3)s2)C(O)(c2ccccc2)C1 (stereo unspecified)
inactive: SK-OV-3 > 100 µM | MDA-N 39.6 µM | HCT-116 30.9 µM | HOP-92 33.7 µM | SNB-19 60.4 µM | NCI-H23 34 µM | MCF7 35.1 µM | OVCAR-3 41.1 µM | OVCAR-8 26.9 µM | HOP-62 51.3 µM | CAKI-1 45.8 µM | UACC-257 43.8 µM | MDA-MB-231 95.5 µM | TK-10 54.3 µM | Hs-578T 36.3 µM | KM12 26.7 µM | SK-MEL-28 > 100 µM

S=c1nc(Nc2ccc(Cl)cc2)c2c3c(sc2[nH]1)CCCC3
inactive: SK-OV-3 > 100 µM | MDA-N > 100 µM | HCT-116 > 100 µM | HOP-92 76 µM | SNB-19 > 100 µM | NCI-H23 45.1 µM | MCF7 90.2 µM | OVCAR-3 > 100 µM | HOP-62 > 100 µM | CAKI-1 > 100 µM | UACC-257 > 100 µM | MDA-MB-231 > 100 µM | HT-29 > 100 µM | TK-10 > 100 µM | Hs-578T > 100 µM | KM12 > 100 µM | SK-MEL-28 > 100 µM

O=S(=O)(O)c1cc(Nc2ccnc3ccccc23)c2c(S(=O)(=O)O)cc(S(=O)(=O)O)cc2c1
inactive: SK-OV-3 > 100 µM | MDA-N > 100 µM | HCT-116 > 100 µM | NCI-H23 > 100 µM | MCF7 > 100 µM | SF-539 > 100 µM | OVCAR-3 > 100 µM | OVCAR-8 > 100 µM | HOP-62 > 100 µM | CAKI-1 > 100 µM | UACC-257 > 100 µM | MDA-MB-231 > 100 µM | HT-29 > 100 µM | SNB-75 > 100 µM | TK-10 > 100 µM | Hs-578T > 100 µM | KM12 > 100 µM | SK-MEL-28 > 100 µM

Cc1nc(NC(C)(CO)CO)nc(N/N=C/c2ccc(Cl)cc2)c1C(=O)Nc1ccc(Cl)cc1
inactive: SK-OV-3 > 100 µM | MDA-N > 100 µM | HCT-116 80.2 µM | SNB-19 > 100 µM | NCI-H23 > 100 µM | MCF7 51.1 µM | SF-539 > 100 µM | OVCAR-3 > 100 µM | OVCAR-8 > 100 µM | HOP-62 > 100 µM | CAKI-1 > 100 µM | UACC-257 > 100 µM | MDA-MB-231 > 100 µM | HT-29 > 100 µM | SNB-75 > 100 µM | TK-10 > 100 µM | Hs-578T > 100 µM | KM12 86.7 µM | SK-MEL-28 > 100 µM

CC(C)CC(NC(=O)C(CC(C)C)NC(=O)C(Cc1c[nH]cn1)NC(=O)C(C)NC(=O)C(NC(=O)C(C)NC(=O)C(Cc1c[nH]c2ccccc12)NC(=O)C(CCC(=O)O)NC(=O)C(N)Cc1ccccc1)C(C)C)C(N)=O (stereo unspecified) (H-FEWAVAHLL-NH2; configuration not given here)
inactive: SK-OV-3 > 12.5 µM | MDA-N > 12.5 µM | HCT-116 > 12.5 µM | SNB-19 > 100 µM | NCI-H23 > 12.5 µM | MCF7 > 12.5 µM | SF-539 > 12.5 µM | OVCAR-3 > 12.5 µM | OVCAR-8 > 12.5 µM | HOP-62 > 12.5 µM | CAKI-1 > 12.5 µM | UACC-257 > 12.5 µM | MDA-MB-231 > 12.5 µM | HT-29 > 12.5 µM | SNB-75 > 100 µM | Hs-578T > 12.5 µM | KM12 > 12.5 µM | SK-MEL-28 63.4 µM

Cc1c2n(c3ccccc13)S(=O)(=O)c1ccccc1-2
inactive: SK-OV-3 14.6 µM | MDA-N 34.9 µM | HCT-116 21.2 µM | HOP-92 30.2 µM | SNB-19 19.8 µM | NCI-H23 23.2 µM | MCF7 28.9 µM | OVCAR-3 45.9 µM | OVCAR-8 21.2 µM | CAKI-1 12.3 µM | UACC-257 > 100 µM | MDA-MB-231 17.8 µM | HT-29 15.4 µM | TK-10 25.6 µM | Hs-578T 18.7 µM | KM12 > 100 µM | SK-MEL-28 > 100 µM

Cc1cccc(C)c1NC(=O)/C=C/c1ccccc1
inactive: SK-OV-3 > 100 µM | MDA-N > 100 µM | HCT-116 > 100 µM | SNB-19 > 100 µM | NCI-H23 > 100 µM | MCF7 > 100 µM | SF-539 > 100 µM | OVCAR-3 > 100 µM | OVCAR-8 73.1 µM | HOP-62 50.1 µM | CAKI-1 > 100 µM | UACC-257 > 100 µM | MDA-MB-231 > 100 µM | HT-29 > 100 µM | SNB-75 31.2 µM | TK-10 > 100 µM | Hs-578T 24.6 µM | KM12 > 100 µM | SK-MEL-28 > 100 µM
